Experiment [1] concerns Candida albicans. The experiment in a line: Antimicrobial activity against Candida albicans fungus at a dose of 120 ug. The class given is functional.
The next experiment has as its system Trichophyton benhamiae. The experiment in a line: Antimicrobial activity against Trichophyton mentagrophytes fungus at a dose of 120 ug. The class given is functional.
Another experiment deals with P388. The experiment in a line: In vitro cytotoxic activity against mouse leukemia (P388 ) cell line. The class given is functional, cell-based.
In experiment [2] the test system is BSC-1. Kind of experiment: In vitro cytotoxic activity against non-malignant african green monkey kidney cell-line (BSC-1); ranges from 3.5-4.5 mm. The class given is functional, Cercopithecidae.
The next experiment relates to Amorphotheca resinae. Kind of experiment: Antimicrobial activity against Cladosporium resinae fungus at a dose of 120 ug. In kind it is functional.
A further experiment concerns Pseudomonas aeruginosa. The experiment in a line: Antimicrobial activity against gram negative Pseudomonas aeruginosa at a dose of 120 ug. The class given is functional.
The test system of a further experiment is Escherichia coli. The experiment in a line: Antimicrobial activity against gram negative Escherichia coli at a dose of 120 ug. The class given is functional.
The test system of the next experiment is Bacillus subtilis. The experiment in a line: Antimicrobial activity against gram positive Bacillus subtilis at a dose of 120 ug. The class given is functional.
The subject of another experiment is MCF7. Kind of experiment: In vitro cytotoxic activity against human breast (MCF-7) cell line. In kind it is functional, cell-based.
The subject of experiment [3] is CHO. Kind of experiment: In vitro cytotoxic activity against DNA-double strand break repair deficient Chinese Hamster Ovary (CHO) cell-line xrs-6. In kind it is functional, cell-based. Conditions: Cricetulus griseus.
For experiment [4], the system named is CHO. The experiment in a line: Hypersensitivity Factor(HF) against DNA-double strand break repair deficient Chinese Hamster Ovary (CHO) cell-line xrs-6 versus wild type BR1(IC50 BRI/IC50 xrs-6). In kind it is functional, Cricetulus griseus.
For experiment [5], the system named is CHO. Kind of experiment: Hypersensitivity Factor (HF2) towards DNA-double strand break repair deficient Chinese Hamster Ovary (CHO) cell-line EM9 versus wild type BR1([…]). The class given is functional, Cricetulus griseus.
Experiment [6] relates to CHO. The experiment in a line: In vitro cytotoxic activity towards DNA-double strand break repair deficient Chinese Hamster Ovary (CHO) cell-line EM9. Conditions: Cricetulus griseus. The class given is functional, cell-based.
Experiment [7] concerns BSC-1. Kind of experiment: In vitro cytotoxic activity against non-malignant african green monkey kidney cell-line (BSC-1); ranges from 4.5-5 mm. The class given is functional, Cercopithecidae.
A further experiment concerns HCT-116. Kind of experiment: In vitro cytotoxic activity against human colon (HCT116) cell line. The class given is functional, cell-based.
Experiment [8] has as its system Candida albicans. The experiment in a line: Antimicrobial activity against Candida albicans fungus at a dose of 120 microg. In kind it is functional.
The subject of experiment [9] is CHO. The experiment in a line: In vitro cytotoxic activity against DNA-double strand break repair deficient Chinese Hamster Ovary (CHO) cell-line EM9. The class given is functional, cell-based. Conditions: Cricetulus griseus.
In experiment [10] the test system is CHO. Kind of experiment: Hypersensitivity Factor(HF) towards DNA-double strand break repair deficient Chinese Hamster Ovary (CHO) cell-line xrs-6 versus wild type BR1(IC50 BRI/IC50 xrs-6). In kind it is functional, Cricetulus griseus.
Experiment [11] has as its system Candida albicans. The experiment in a line: Minimum inhibitory concentration against Candida albicans fungus at a dose of 120 microg. The class given is functional.
Experiment [12] has as its system Candida albicans. The experiment in a line: Minimum inhibitory concentration against Candida albicans fungus at a dose of 120 ug. In kind it is functional.

Structures are written as SMILES. Values after ≈ are worked out from the molar mass of the structure shown.

For orientation: IC50 means the concentration that inhibits the measured activity by half. The term MIC denotes the smallest concentration in the dilution series that meets the test's criterion for growth inhibition.

With `Cc1c2c(nc3ccccc13)C(=O)c1cccnc1C2=O`, the Excess zone radius in the experiment with Candida albicans [1] is 1 mm; in the experiment on Trichophyton benhamiae, 0 mm; in the experiment on BSC-1 [2], 3.5 mm; in the experiment on Amorphotheca resinae, 6 mm; in the experiment with Pseudomonas aeruginosa, 0 mm; in the experiment on Escherichia coli it was 0 mm. In the experiment with Bacillus subtilis, the Excess zone radius was determined as 10 mm. The compound also came in with a half-maximal inhibitory concentration (IC50) in the experiment with P388 of 56 µM.
With `O=C1c2cccnc2-c2nccc3c2c1nc1ccccc13` [ASCIDIDEMIN], the IC50 turned out to be 0.3 µM in the experiment with MCF7; 0.03 µM in the experiment with CHO [3]; 0.4 µM with P388; 0.3 µM in the experiment on CHO [6]; 0.3 µM in the experiment with HCT-116. Moreover, the Excess zone radius in the experiment on Trichophyton benhamiae came to 0 mm; in the experiment on Amorphotheca resinae, 10 mm; in the experiment with BSC-1 [7], 4.5 mm; in the experiment with Pseudomonas aeruginosa, 0 mm; with Escherichia coli it was 10 mm; in the experiment on Bacillus subtilis, 14 mm. In the experiment on Candida albicans [8], this compound came in with an Excess zone radius of 11 mm. In addition, in the experiment on CHO [4], the HF is listed as 10. In the experiment on CHO [5], this compound had an HF2 of 1.
Take `O=C1c2ccccc2-c2nccc3c2c1nc1ccccc13` [BENZOSAMPANGINE]: the IC50 in the experiment with CHO [9] is 18 µM; with MCF7, > 350 µM; with CHO [3] it was 18 µM; with P388, 1.6 µM; in the experiment with HCT-116, > 350 µM. In addition, the Excess zone radius came to 12 mm with Candida albicans [1]; 10 mm in the experiment with Trichophyton benhamiae; 0 mm in the experiment with Amorphotheca resinae; 0 mm with Pseudomonas aeruginosa; 0 mm in the experiment on Escherichia coli; 8 mm in the experiment with Bacillus subtilis. Besides, the HF in the experiment with CHO [10] is given as 1. Besides, 0.39 mg/L (≈ 1.38 µM) was the least that counted as inhibitory in the experiment with Candida albicans [11] (MIC). The same compound gave an HF2 with CHO [5] of 0.2.
With `Cc1c2c(nc3ccccc13)C(=O)c1ccccc1C2=O`, the Excess zone radius in the experiment on Trichophyton benhamiae is 0 mm; with Amorphotheca resinae, 0 mm; in the experiment on Pseudomonas aeruginosa, 0 mm; in the experiment on Escherichia coli, 0 mm; with Bacillus subtilis, 3 mm. Further, it took 25 mg/L (≈ 91.5 µM) to inhibit growth in the experiment with Candida albicans [12] (MIC). Also, half-maximal inhibition in the experiment with P388 (IC50) required 39 µM.

These data come from ChEMBL document CHEMBL1153679, “Structural requirements for biological activity of the marine alkaloid ascididemin” (Bioorg Med Chem Lett, 1995).
